pEC50, pIC50: −log10 of the molar value. Where two headings read alike, the source gives them in different places.
Assays:
[1] = test system: PD1-ss+10aa/Gaussia Luciferase; assay: Dox-Induced PD1-ss-Gluc Assay; assay type: cell-based; details: 24 hr Dox induction, 293FRT/TO cells, read-out: 24 hr Dox Inducible PD1ssGluc 293FRT/TO: Mean IC50
Outline: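 Doxycycline-induced expression of a PD1-ss+10aa/Gaussia luciferase reporter is measured in stable Flp-In 293 T-REx cells. Compound dilutions containing doxycycline are added one day after plating and incubated at 37 °C, 5% CO2. Values for unassigned stereocentres refer to stereoisomer mixtures.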

[2] = test system: TNFα-FL/Gaussia Luciferase; assay: Dox Induced TNFα-FL-Gluc Assay; assay type: cell-based; details: for pIC50: 24 hr Dox induction, 293FRT/TO cells, read-out: 24 hr Dox Inducible TNFaFLGluc 293FRT/TO: Mean IC50; for 24 hr Dox Inducible TNFaFLGluc 293FRT/TO: TNF/PD1: ratio of TNFaFLGluc IC50 to PD1ssGluc IC50
Outline: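 Stereoisomer mixtures were tested where stereochemistry is not drawn. Induction used doxycycline added together with compound dilutions in DMSO/media to Flp-In 293 T-REx cells carrying a T-REx-regulated TNFα (aa 1-233)-Gaussia luciferase construct, then incubated at 37 °C, 5% CO2.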

[3] = test system: HER3-ss+4aa/Gaussia Luciferase; assay: Dox-Induced Her3-ss-Gluc Assay; assay type: cell-based; details: 24 hr Dox induction, 293FRT/TO cells, read-out: 24 hr Dox Inducible Her3(ss + 4)Gluc 293FRT/TO: Mean IC50
Outline: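 Cells were seeded a day ahead, then given compound diluted in DMSO/media with doxycycline to induce expression of the HER3 signal sequence (+4 aa)–Gaussia luciferase fusion. Incubation was at 37° C., 5% CO2, in a stable Flp-In 293 T-REx line.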

[4] = test system: IL-2-FL/Gaussia Luciferase; assay: Dox Induced IL2-FL-Gluc Assay; assay type: cell-based; details: for pIC50: 24 hr Dox induction, 293FRT/TO cells, read-out: 24 hr Dox Inducible IL2FLGluc 293FRT/TO: Mean IC50; for 24 hr Dox Inducible IL2FLGluc 293FRT/TO: IL2/PD1: ratio of IL2FLGluc IC50 to PD1ssGluc IC50
Outline: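 Cells are plated one day ahead, then receive compound dilutions in DMSO/media with doxycycline and incubate at 37° C, 5% CO2. They are Flp-In 293 T-REx cells expressing a full-length IL-2 (amino acids 1-153)–Gaussia luciferase fusion under T-REx control.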

[5] = test system: multiple myeloma cell line NCI-H929; assay: H929 Cell Viability Assay; assay type: cell-based, human; details: Homo sapiens, NCI-H929, 48 h, NCI-H929 cells, Celltiter-Glo
Outline: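 Luminescent ATP detection (CellTiter-Glo) after 48 hours of compound exposure measures viability. Cells were plated in RPMI 1640 containing 10% fetal bovine serum and kept at 37° C under 5% CO2.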

[6] = test system: multiple myeloma cell line U266B1; assay: U266 Cell Viability Assay; assay type: cell-based, human; details: Homo sapiens, U-266, 48 h, U266B1 cells, Celltiter-Glo
Outline: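 Steps: culture in RPMI 1640 plus 10% FBS and 2 mM glutamine; plate and add compound dilutions; incubate 48 hours at 37° C., 5% CO2; add CellTiter-Glo and quantify luciferase signal.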

[7] = Liver Microsome Stability Assay (rat); details: rat liver microsomes, with NADPH, 1.0 uM compound
Experimental: (§1) Stability of a compound was assessed in the presence of liver microsomes from various sources—mouse, rat, monkey and human liver microsomes. 1.0 uM compound, 0.4% DMSO in 0.1 M Potassium Phosphate with 1.0 mg/mL liver microsomes, were incubated at 37° C. with or without 1 mM NADPH. The samples were quenched at 0, and 30 minutes.

[8] = Liver Microsome Stability Assay (mouse); details: mouse liver microsomes, with NADPH, 1.0 uM compound
Experimental: as §1

[9] = Liver Microsome Stability Assay (human); details: human liver microsomes, with NADPH, 1.0 uM compound
Experimental: as §1

[10] = Liver Microsome Stability Assay (monkey); details: monkey liver microsomes, with NADPH, 1.0 uM compound
Experimental: as §1

[11] = '<=>' given where both are I.A.

| SMILES | pIC50 [1] | pIC50 [2] | 24 hr Dox Inducible TNFaFLGluc 293FRT/TO: TNF/PD1 [2] | pIC50 [3] | pIC50 [4] | 24 hr Dox Inducible IL2FLGluc 293FRT/TO: IL2/PD1 [4] | pEC50 [5] | pEC50 [6] | Liver Microsome Stability (Multiple Species): Rat - % Remaining after 30 min w/NADPH [7] [%] | Liver Microsome Stability (Multiple Species): Mouse - % Remaining after 30 min w/NADPH [8] [%] | Liver Microsome Stability (Multiple Species): Human - % Remaining after 30 min w/NADPH [9] [%] | Liver Microsome Stability (Multiple Species): Monkey - % Remaining after 30 min w/NADPH [10] [%] | pIC50 ([1]; mean) | pIC50 ([2]; mean) | 24 hr Dox Inducible TNFaFLGluc 293FRT/TO: TNF/PD1 [2, 11] | pIC50 ([3]; mean) | pIC50 ([4]; mean) | 24 hr Dox Inducible IL2FLGluc 293FRT/TO: IL2/PD1 [4, 11] |
| --- | --- | --- | --- | --- | --- | --- | --- | --- | --- | --- | --- | --- | --- | --- | --- | --- | --- | --- |
| CNCc1ccc(N2CCC[C@@H]2c2csc(NC(=O)c3cccn3Cc3ccncc3)n2)cc1 [Compound A49, (R)-N-(4-(1-(4-((methylamino)methyl)phenyl)pyrrolidin-2-yl)thiazol-2-yl)-1-(pyridin-4-ylmethyl)-1H-pyrrole-2-carboxamide] | 6.11 | < 4.60 | >32.1 | 5.79 | 5.65 | 2.8 | 5.01 | 5.09 | 10.7 | 29.4 | 1.94 | 0.94 | – | – | – | – | – | – |
| Cc1cnccc1Cn1cccc1C(=O)Nc1nc([C@H]2CCCN2c2ccccc2)cs1 [Compound A53, (R)-1-((3-methylpyridin-4-yl)methyl)-N-(4-(1-phenylpyrrolidin-2-yl)thiazol-2-yl)-1H-pyrrole-2-carboxamide] | 7.62 | 6.52 | 12.7 | 7.50 | 7.27 | 2.3 | 4.69 | < 4.60 | 0.63 | 3.47 | 1.11 | 0.33 | – | – | – | – | – | – |
| CC(=O)N1CCC(Oc2ccc(N3CCC[C@@H]3c3csc(NC(=O)c4cc(C)cn4Cc4ccnc(F)c4)n3)cc2)CC1 [Compound A165, (R)-N-(4-(1-(4-((1-acetylpiperidin-4-yl)oxy)phenyl)pyrrolidin-2-yl)thiazol-2-yl)-1-((2-fluoropyridin-4-yl)methyl)-4-methyl-1H-pyrrole-2-carboxamide] | 7.53 | 6.41 | 13 | 7.28 | 7.34 | 1.5 | 6.06 | < 4.60 | 59.2 | 30.7 | 42.1 | 47.5 | – | – | – | – | – | – |
| CCC(CC#N)Cn1cccc1C(=O)Nc1nc([C@H]2CCCN2c2ccccc2)cs1 (stereo partly drawn) [Compound C113, 1-(2-(cyanomethyl)butyl)-N-(4-((R)-1-phenylpyrrolidin-2-yl)thiazol-2-yl)-1H-pyrrole-2-carboxamide] | – | – | – | – | – | – | 4.64 | < 4.60 | 14.8 | 5.06 | 14.9 | 3.66 | 6.06 | 4.79 | 18.6 | 5.88 | 5.75 | 2 |
| Nc1ccc(N2CCC[C@@H]2c2csc(NC(=O)c3cccn3Cc3ccncc3)n2)cc1 [Compound A20] | 7.78 | 6.88 | 8 | 7.39 | 7.40 | 2.4 | 6.47 | 5.33 | 26.3 | 7.28 | 4.63 | 2.72 | – | – | – | – | – | – |
| O=C(Nc1nc(CCC2CCCCO2)cs1)c1cccn1Cc1ccncc1 (stereo not drawn) [Compound E6, 1-(pyridin-4-ylmethyl)-N-(4-(2-(tetrahydro-2H-pyran-2-yl)ethyl)thiazol-2-yl)-1H-pyrrole-2-carboxamide] | – | – | – | – | – | – | 4.62 | < 4.60 | 0.75 | 1.82 | 0.67 | 0.57 | 6.68 | 5.22 | 29.1 | 5.89 | 5.75 | 8.6 |
| O=C(Nc1nc([C@H]2CCCN2c2cccnc2)cs1)c1cccn1Cc1ccncc1 [Compound E46, (R)-N-(4-(1-(pyridin-3-yl)pyrrolidin-2-yl)thiazol-2-yl)-1-(pyridin-4-ylmethyl)-1H-pyrrole-2-carboxamide] | – | – | – | – | – | – | 5.44 | < 4.60 | 1.85 | 22.1 | 7.36 | 0.6 | 7.54 | 6.28 | 18.1 | 7.22 | 6.94 | 3.9 |
| O=C(Nc1nc(/C=C/c2ncoc2C2CCCCC2)cs1)c1cccn1Cc1ccnc(F)c1 [Compound B53, (E)-N-(4-(2-(5-cyclohexyloxazol-4-yl)vinyl)thiazol-2-yl)-1-((2-fluoropyridin-4-yl)methyl)-1H-pyrrole-2-carboxamide] | 7.42 | 5.42 | 101 | 6.06 | 5.78 | 44 | 4.95 | < 4.60 | 2.11 | 14.5 | 5.98 | 1.39 | – | – | – | – | – | – |
| CN(C)C(=O)CCn1cccc1C(=O)Nc1nc([C@H]2CCCN2c2ccccc2)cs1 [Compound C59, (R)-1-(3-(dimethylamino)-3-oxopropyl)-N-(4-(1-phenylpyrrolidin-2-yl)thiazol-2-yl)-1H-pyrrole-2-carboxamide] | – | – | – | – | – | – | < 4.60 | < 4.60 | 11.5 | 3.23 | 0.87 | 2.48 | 5.10 | < 4.60 | >3.13 | 4.91 | < 4.60 | 3.1 |

Reference: patent US20230286973A1, “PROTEIN SECRETION INHIBITORS” (KEZAR LIFE SCIENCES, priority 2020, published 2023)
